Type in all cases: in vivo
The subject of one experiment is Nilaparvata lugens. The experiment is described as follows: Test Example 8: Mortality Test for Nilaparvata lugens. Particulars: 144 h, drug solution 500 ppm, Oryza sativa leaf sheath immersed, 2 instar larvae, after 6 days. How it is done: (§1) A 10% emulsifiable concentrate of the compound of the present invention (depending on the type of the compound, a 10% wettable powder was subjected to the test) was diluted with water containing a spreader to prepare a drug solution in a concentration of 500 ppm. In this drug solution, a leaf sheath of Oryza sativa was immersed for about 10 seconds and was air-dried and then put into a test tube. In the test tube, five 2 instar larvae of Nilaparvata lugens per test tube were released and the test tube was capped with a sponge and stored in a thermostat room of 25° C. The number of killed larvae after 6 days was measured and the mortality was calculated from the same calculation formula as that in Test Example 1. Here, the test was carried out with two replications.

Another experiment deals with Homona magnanima. The experiment is described as follows: Test Example 3: Mortality Test for Homona magnanima. The note with it: 144 h. How it is done:
(§2) A 10% emulsifiable concentrate of the compound of the present invention (depending on the type of the compound, a 10% wettable powder was subjected to the test) was diluted with water containing a spreader to prepare a drug solution in a concentration of 100 ppm. In this drug solution, a leaf of canarium album was immersed for about 10 seconds and was air-dried and then put into a petri dish. In the petri dish, five 2 instar larvae of Homona magnanima per petri dish were released and the petri dish was capped and stored in a thermostat room of 25° C. The number of killed larvae after 6 days was measured and the mortality was calculated from the same calculation formula as that in Test Example 1. Here, the test was carried out with two replications.

A further experiment concerns Eysarcoris lewisi. In words: Test Example 7: Mortality Test for Eysarcoris lewisi. Particulars: in Oryza sativa, 48 h. How it is done:
as §1, with “five 1” for “five 2”, “of Eysarcoris lewisi” for “of Nilaparvata lugens”, “per one” for “per”, “after 2” for “after 6”

The next experiment has as its system Helicoverpa armigera. The experiment is described as follows: Test Example 4: Mortality Test for Helicoverpa armigera. Particulars: 144 h. The method, then: as §2, with “dish, one” for “dish, five”, “instar larva” for “instar larvae”, “of Helicoverpa armigera” for “of Homona magnanima”, “dish was” for “dish were”, “with 2” for “with two”
The subject of a further experiment is Aulacophora femoralis. In words: Test Example 12: Mortality Test for Aulacophora femoralis. Particulars: in Cucumis sativus, 144 h. How it is done: as §2, with “500” for “100”, “cucumber” for “canarium album”, “Aulacophora femoralis” for “Homona magnanima”
Experiment [1] relates to American dog ticks (Dermacentor variabilis). In words: Test Example 16: Mortality Test for American Dog Tick. Particulars: 96 h, thin film in petri dishes, 0.1 μg/cm^2 (acetone solution 100 ppm), protonymphs, after 4 days. How it is done:
To the bottom surfaces and the side surfaces of two petri dishes having an inner diameter of 5.3 cm, 400 μL of an acetone solution in which 4 mg of a compound of the present invention was dissolved in 40 mL of acetone (concentration: 100 ppm) was applied and the acetone was volatilized to form a thin film of the compound of the present invention on the inner walls of the petri dishes. The inner wall of the used petri dish has an area of 40 cm^2, so that the amount of the applied drug is 0.1 μg/cm^2. In one petri dish, 10 American dog ticks (Dermacentor variabilis) protonymphs (male and female were mixed) were released and the petri dish was capped with the other petri dish. The seam part of the two petri dishes was sealed with a tape so that the protonymphs could not flee and the two petri dishes were stored in a thermostat room of 25° C. The number of killed protonymphes after 4 days was measured and the mortality was calculated from the same calculation formula as that in Test Example 1. Here, the test was carried out on the single sample.

For experiment [2], the system named is Frankliniella occidentalis. The experiment is described as follows: Test Example 18: Mortality Test for Frankliniella occidentalis (Comparative Test 2). Particulars: 48 h. How it is done:
In a styrol cup having an inner diameter of 7 cm, a wet filtration paper was laid, and on the paper, a leaf of kidney bean cut out so as to have the same diameter as the inner diameter of the cup was laid, followed by inoculating ten 1 instar larvae of Frankliniella occidentalis per leaf to the leaf. 10% emulsifiable concentrates of the compound of the present invention and a comparative compound were diluted with water containing a spreader to prepare drug solutions in a predetermined concentration. The drug solutions were dusted using a rotary dusting tower in an amount of 2.5 mL per styrol cup, and the cup was capped and stored in a thermostat room of 25° C. The number of killed larvae after 2 days was measured and the mortality was calculated from the following calculation formula: Mortality (%)=(number of killed larvae/number of released larvae)×100. Here, the test was carried out with two replications.

For the next experiment, the system named is Myzus persicae. In words: Test Example 10: Mortality Test for Myzus persicae. The note with it: 144 h. How it is done:
In a glass petri dish having an inner diameter of 3 cm, a wet absorbent cotton was laid, and on the cotton, a leaf of canarium album cut out so as to have the same diameter as the inner diameter of the petri dish was laid, followed by releasing 4 apterous imagines of Myzus persicae on the leaf. After one day, 10% emulsifiable concentrate of the compound of the present invention (depending on the type of the compound, a 10% wettable powder was subjected to the test) was diluted with water containing a spreader to prepare a drug solution in a concentration of 500 ppm. The drug solution was dusted using a rotary dusting tower (2.5 mg/cm^2) and the petri dish was capped and stored in a thermostat room of 25° C. The number of killed imagines after 6 days was measured and the mortality was calculated from the same calculation formula as that in Test Example 1. Here, the test was carried out with two replications.

Broadly, the mortality is the share of the test organisms that died. A high value points to a strong lethal effect. `Cc1cc(C2=NOC(c3cc(Cl)cc(Cl)c3)(C(F)(F)F)C2)ccc1C(=O)NC1(c2ccccn2)CC1` (stereo not drawn) [No. 1-007, 4-[5-(3,5-Dichlorophenyl)-5-trifluoromethyl-4,5-dihydroisoxazole-3-yl]-2-methyl-N-[1-(2-pyridyl)cyclopropyl]benzamide]: the mortality at 500 ppm with Nilaparvata lugens, in the experiment with Eysarcoris lewisi, in the experiment on Aulacophora femoralis and with Myzus persicae was no less than 80% each time. Moreover, the mortality at 100 ppm in the experiment with Homona magnanima and with Helicoverpa armigera was no less than 80% in each case. The compound further returned a mortality at 100 ppm, 0.1 µg/cm2 in experiment [1] of no less than 80%. Besides, the mortality at 0.1 ppm in experiment [2] is 0%. In addition, the mortality at 0.3 ppm in experiment [2] turned out to be 0%. In experiment [2], this compound displayed a mortality at 1 ppm of 38.1%. For the same compound, the mortality at 3.3 ppm in experiment [2] was found to be 96.3%. In experiment [2], this compound displayed a mortality at 10 ppm of 100%.

These data come from patent publication US8119671B2, “Isoxazoline-substituted benzamide compound and pest control agent” (Nissan Chemical Industries, Ltd., priority 2007, dated 2012).
